Legend:
Type in all cases: in vivo
[1] = test system: Coptotermes formosanus Shiraki; test: Test Example 2: primary transmission treatment effect
Procedure: (§1) A test agent solution containing 0.023 parts of dicloromezotiaz was prepared by adding 99.875 parts of water to 0.125 parts of the aqueous suspension composition shown in Formulation Example 1. As comparative examples, four types of commercially available neonicotinoid termite controlling agents and four types of slow-acting termite controlling agents shown in Table 2 were diluted with water at practical concentrations to prepare test agent solutions. The “agent concentration (%)” indicates the concentration of the active ingredient contained in each of the composition of the present invention and the termite controlling agents and the “test agent solution concentration (%)” indicates the concentration of the active ingredient in each of the prepared test agent solutions.
(§2) After 1.2 g of each of the test agent solutions of the example and the comparative examples diluted to a predetermined concentration and prepared was added to 4.8 g of soil, 6 g of the mixed soil was spread in a glass petri dish having a diameter of 50 mm and ten workers of Coptotermes formosanus Shiraki were released into the petri dish and exposed to the agent solution for 4 hours.

[2] = test system: Coptotermes formosanus Shiraki; test: Test Example 2: secondary transmission treatment effect
Procedure: as §1, §2

[3] = test system: Coptotermes formosanus Shiraki; test: Test Example 3: extirpation test with dust formulation using simulated termite trails; details: active ingredient concentration 50%
[4] = test system: Coptotermes formosanus Shiraki; test: Test Example 1: effect of agent on gypsum treated with test agent solution; details: dicloromezotiaz 0.023%, imidacloprid 0.1%, fipronil 0.03% test agent solution on gypsum
Procedure: A test agent solution containing 0.023 parts of dicloromezotiaz was prepared by adding 99.875 parts of water to 0.125 parts of the aqueous suspension composition shown in Formulation Example 1.
In a comparative example, an aqueous suspension composition prepared by adding an agent solution, wherein 99 parts of water was added to 1 part of a flowable containing 10.0 parts of imidacloprid and which contained 0.1 parts of imidacloprid and a drug solution, wherein 299 parts of water was added to 1 part of a flowable containing 9.1 parts of fipronil and which contained 0.03 parts of fipronil, uniformly mixing same was used as a test agent solution of a comparative example.
As the imidacloprid formulation and the fipronil formulation, commercially available termite controlling agents were used and diluted solutions at practical agent concentrations thereof were used as test agent solutions.
Gypsum was cured and spread in a glass petri dish having a diameter of 90 mm, 15 ml of each of the test agent solution of the example and the test agent solution of the comparative example was uniformly dropped on the entire surface of the gypsum. Thereafter, ten workers of Coptotermes formosanus Shiraki were released into the petri dish and the petri dish was covered and left to stand in a thermostatic chamber (25° C./relative humidity 60%).
The number of abnormal termites and the number of dead termites among the released termites (Coptotermes formosanus Shiraki) were observed every one hour from immediately after the release of the termites (Coptotermes formosanus Shiraki) until ten hours passed and the total number of the abnormal termite rate and the dead termite rate was calculated as the abnormal or dead termite rate (%) according to [Expression 1] below and the rates of expression of the effects of the respective agents were compared. Each test agent was prepared in one petri dish as one plot and the test was carried out in two replicates.

[5] = after 1 day, Table 4, dicloromezotiaz 0.023%, chlorfenapyr 0.11%, clothianidin 0.05%, dinotefuran 0.20%, thiamethoxam 0.10%, broflanilide 0.03% solution in soil
[6] = after 3 days, Table 4, dicloromezotiaz 0.023%, chlorfenapyr 0.11%, clothianidin 0.05%, dinotefuran 0.20%, thiamethoxam 0.10%, broflanilide 0.03% solution in soil
[7] = after 7 days, Table 4, dicloromezotiaz 0.023%, chlorfenapyr 0.11%, clothianidin 0.05%, dinotefuran 0.20%, thiamethoxam 0.10%, broflanilide 0.03% solution in soil
[8] = after 14 days, Table 4, dicloromezotiaz 0.023%, chlorfenapyr 0.11%, clothianidin 0.05%, dinotefuran 0.20%, thiamethoxam 0.10%, broflanilide 0.03% solution in soil
[9] = after 21 days, Table 4, dicloromezotiaz 0.023%, chlorfenapyr 0.11%, clothianidin 0.05%, dinotefuran 0.20%, thiamethoxam 0.10%, broflanilide 0.03% solution in soil
[10] = after 1 day, Table 6, dicloromezotiaz 0.023%, chlorfenapyr 0.11%, clothianidin 0.05%, dinotefuran 0.20%, thiamethoxam 0.10%, broflanilide 0.03% solution in soil
[11] = after 3 days, Table 6, dicloromezotiaz 0.023%, chlorfenapyr 0.11%, clothianidin 0.05%, dinotefuran 0.20%, thiamethoxam 0.10%, broflanilide 0.03% solution in soil
[12] = after 7 days, Table 6, dicloromezotiaz 0.023%, chlorfenapyr 0.11%, clothianidin 0.05%, dinotefuran 0.20%, thiamethoxam 0.10%, broflanilide 0.03% solution in soil
[13] = after 14 days, Table 6, dicloromezotiaz 0.023%, chlorfenapyr 0.11%, clothianidin 0.05%, dinotefuran 0.20%, thiamethoxam 0.10%, broflanilide 0.03% solution in soil
[14] = after 21 days, Table 6, dicloromezotiaz 0.023%, chlorfenapyr 0.11%, clothianidin 0.05%, dinotefuran 0.20%, thiamethoxam 0.10%, broflanilide 0.03% solution in soil
[15] = after 1 day, Table 3, dicloromezotiaz 0.023%, fipronil 0.03%, imidacloprid 0.10%, chlorantraniliprole 0.05% solution in soil
[16] = after 3 days, Table 3, dicloromezotiaz 0.023%, fipronil 0.03%, imidacloprid 0.10%, chlorantraniliprole 0.05% solution in soil
[17] = after 7 days, Table 3, dicloromezotiaz 0.023%, fipronil 0.03%, imidacloprid 0.10%, chlorantraniliprole 0.05% solution in soil
[18] = after 14 days, Table 3, dicloromezotiaz 0.023%, fipronil 0.03%, imidacloprid 0.10%, chlorantraniliprole 0.05% solution in soil
[19] = after 21 days, Table 3, dicloromezotiaz 0.023%, fipronil 0.03%, imidacloprid 0.10%, chlorantraniliprole 0.05% solution in soil
[20] = after 1 day, Table 5, dicloromezotiaz 0.023%, fipronil 0.03%, imidacloprid 0.10%, chlorantraniliprole 0.05% solution in soil
[21] = after 3 days, Table 5, dicloromezotiaz 0.023%, fipronil 0.03%, imidacloprid 0.10%, chlorantraniliprole 0.05% solution in soil
[22] = after 7 days, Table 5, dicloromezotiaz 0.023%, fipronil 0.03%, imidacloprid 0.10%, chlorantraniliprole 0.05% solution in soil
[23] = after 14 days, Table 5, dicloromezotiaz 0.023%, fipronil 0.03%, imidacloprid 0.10%, chlorantraniliprole 0.05% solution in soil
[24] = after 21 days, Table 5, dicloromezotiaz 0.023%, fipronil 0.03%, imidacloprid 0.10%, chlorantraniliprole 0.05% solution in soil

Compound | Abnormal or dead termite rate (%) [1, 5] [%] | Abnormal or dead termite rate (%) [1, 6] [%] | Abnormal or dead termite rate (%) [1, 7] [%] | Abnormal or dead termite rate (%) [1, 8] [%] | Abnormal or dead termite rate (%) [1, 9] [%] | Abnormal or dead termite rate (%) [2, 10] [%] | Abnormal or dead termite rate (%) [2, 11] [%] | Abnormal or dead termite rate (%) [2, 12] [%] | Abnormal or dead termite rate (%) [2, 13] [%] | Abnormal or dead termite rate (%) [2, 14] [%] | also measured
CN/C(=N\[N+](=O)[O-])NCc1cnc(Cl)s1 [Clothianidin] | 94 | 89 | 75 | 91 | 94 | 0 | 0 | 3.3 | 3.3 | 4.4 | 
N#Cc1ccc(CC(=NNC(=O)Nc2ccc(OC(F)(F)F)cc2)c2cccc(C(F)(F)F)c2)cc1 (mixture of isomers) [Metaflumizone, metaflumizone] |  |  |  |  |  |  |  |  |  |  | Abnormal or dead termite rate (%) ([3]; 1 h): 0%; Abnormal or dead termite rate (%) ([3]; 2 h): 0%; Abnormal or dead termite rate (%) ([3]; 3 h): 0%; Abnormal or dead termite rate (%) ([3]; 4 h): 0%; Abnormal or dead termite rate (%) ([3]; 5 h): 0%; Abnormal or dead termite rate (%) ([3]; 6 h): 0%; Abnormal or dead termite rate (%) ([3]; 7 h): 0%; Abnormal or dead termite rate (%) ([3]; 1 day): 100%; Abnormal or dead termite rate (%) ([3]; 2 days): 100%; Abnormal or dead termite rate (%) ([3]; 3 days): 100%; Abnormal or dead termite rate (%) ([3]; 7 days): 100%
CN/C(=N/CC1CCOC1)N[N+](=O)[O-] (stereo not shown) [Dinotefuran] | 93 | 94 | 96 | 98 | 99 | 24 | 18 | 16 | 18 | 22 | 
CN1COCN(Cc2cnc(Cl)s2)/C1=N\[N+](=O)[O-] [Thiamethoxam] | 98 | 91 | 98 | 95 | 96 | 0 | 0 | 3.3 | 3.3 | 4.4 | 
CNC(=O)c1cc(Cl)cc(C)c1NC(=O)c1cc(Br)nn1-c1ncccc1Cl [Chlorantraniliprole] |  |  |  |  |  |  |  |  |  |  | Abnormal or dead termite rate (%) [1, 15]: 98%; Abnormal or dead termite rate (%) [1, 16]: 100%; Abnormal or dead termite rate (%) [1, 17]: 85%; Abnormal or dead termite rate (%) [1, 18]: 80%; Abnormal or dead termite rate (%) [1, 19]: 85%; Abnormal or dead termite rate (%) [2, 20]: 10%; Abnormal or dead termite rate (%) [2, 21]: 2.2%; Abnormal or dead termite rate (%) [2, 22]: 1.1%; Abnormal or dead termite rate (%) [2, 23]: 2.2%; Abnormal or dead termite rate (%) [2, 24]: 7.8%
CN(C(=O)c1ccccc1)c1cccc(C(=O)Nc2c(Br)cc(C(F)(C(F)(F)F)C(F)(F)F)cc2C(F)(F)F)c1F [Broflanilide] | 100 | 73 | 48 | 53 | 56 | 2.2 | 0 | 3.3 | 5.6 | 6.7 | 
O=[N+]([O-])NC1=NCCN1Cc1ccc(Cl)nc1 [Imidacloprid] |  |  |  |  |  |  |  |  |  |  | Abnormal or dead termite rate (%) [1, 15]: 92%; Abnormal or dead termite rate (%) [1, 16]: 22%; Abnormal or dead termite rate (%) [1, 17]: 11%; Abnormal or dead termite rate (%) [1, 18]: 14%; Abnormal or dead termite rate (%) [1, 19]: 15%; Abnormal or dead termite rate (%) ([4]; time elapsed 1 h): 100%; Abnormal or dead termite rate (%) ([4]; time elapsed 2 h): 100%; Abnormal or dead termite rate (%) ([4]; time elapsed 3 h): 100%; Abnormal or dead termite rate (%) ([4]; time elapsed 4 h): 100%; Abnormal or dead termite rate (%) ([4]; time elapsed 5 h): 100%; Abnormal or dead termite rate (%) ([4]; time elapsed 6 h): 100%; Abnormal or dead termite rate (%) ([4]; time elapsed 7 h): 100%; Abnormal or dead termite rate (%) ([4]; time elapsed 8 h): 100%; Abnormal or dead termite rate (%) ([4]; time elapsed 9 h): 100%; Abnormal or dead termite rate (%) ([4]; time elapsed 10 h): 100%; Abnormal or dead termite rate (%) [2, 20]: 0%; Abnormal or dead termite rate (%) [2, 21]: 1.1%; Abnormal or dead termite rate (%) [2, 22]: 1.1%; Abnormal or dead termite rate (%) [2, 23]: 1.1%; Abnormal or dead termite rate (%) [2, 24]: 1.2%
CCOCn1c(-c2ccc(Cl)cc2)c(C#N)c(Br)c1C(F)(F)F [Chlorfenapyr] | 89 | 80 | 89 | 100 | 100 | 0 | 0 | 3.3 | 7.8 | 31 | 

Reference: US20250255304A1, “HIGHLY TRA[…] CONTROLLING COMPOSITION” (ZM Crop Protection Corporation, priority 2022, published 2025)
